Data published in patent publication US9345682B2, “Inhibition of STAT3 signal transduction for human cancer therapy” (University of South Florida, priority 1999, dated 2016).

Columns and labels:
[1] = system: IL-12-activated peritoneal macrophages; experiment: Viability of IL-12-activated peritoneal macrophages (MTT); assay type: cell-based, mice; settings: 50 mM AG-490
Protocol: (§1) In vitro IL-12 activation and AG-490 treatment of macrophages. Peritoneal macrophages (2×10^5/well) are incubated in medium supplemented with either PBS, or rIL-12 (2 ng/ml), or AG-490 ([…]). Forty-eight hours later, the cultures are renewed by addition of fresh medium with either AG-490 or rIL-12 or PBS. Activation of macrophages is determined by nitric oxide production. Macrophage viability is determined by cleavage of tetrazolium salt in an MTT assay.

U266 cells [2] = experiment: Fas-mediated apoptosis (Annexin V, flow cytometry) in U266 cells; assay type: cell-based, human
Protocol: For surface detection of the Fas receptor, 10^6 cells are suspended in […] PBS with 2.5 mg/ml mouse IgM (Sigma) and […] UB2 antibody (MBL) or IgG1, isotype control serum (Dako). Following 30 min incubation at room temperature, cells are washed with PBS, and incubated in the dark for 30 min with goat anti-mouse Ig-FITC. Fluorescence is measured on a FACScan flow cytometer and analyzed using CellQuest software (Becton Dickinson). For cell cycle analysis, 10^6 cells are fixed in ice-cold ethanol for a minimum of 2 h, washed with PBS, and stained with 5 mg/ml propidium iodide (PI) and […] at 37° C. for 30 min prior to analysis by flow cytometry. […] Apoptosis is measured by staining with Annexin V-FITC (Clontech) and flow cytometry analysis. Fas-specific death is calculated as (% Annexin V positive cells in the CH-11 treated population)−(% Annexin V positive cells in the IgM control population). Programmed cell death in cells transfected with the bicistronic green fluorescent protein vectors (pIRES-EGFP or pIRES-Stat3b) is analyzed after staining with Annexin V-PE (Pharmingen) by two color flow cytometry analysis. Apoptotic morphology of DAPI-stained nuclei and green/red fluorescence is confirmed by fluorescence microscopy.

MOPC tumors = experiment: TUNEL assay of MOPC tumors; assay type: in vivo, BALB/c mice; settings: regressing MOPC tumors
Protocol: Terminal deoxynucleotidyltransferase-mediated dUTP-Digoxigenin nick-end-labeling (TUNEL) assay. MOPC tumors that receive either AG-490 or 50% DMSO treatment are used for this assay. Three-μm sections from paraffinized tissues are dewaxed and rehydrated according to standard protocols. After incubation with proteinase K (30 min at 21° C.), the TUNEL reaction mixture (Boehringer Mannheim, Indianapolis, Ind.) is added to rinsed slides, which are incubated in a humidified chamber for […] at 37° C. This is followed by incubating with Converter-AP (50 ml) and substrate solution (50 ml). The reaction is visualized by light microscopy.

U266 cells [3] = experiment: Cell cycle analysis and spontaneous cell death of U266 cells; assay type: cell-based, human
Protocol: (§2) For surface detection of the Fas receptor, 10^6 cells are suspended in […] PBS with 2.5 mg/ml mouse IgM (Sigma) and […] UB2 antibody (MBL) or IgG1, isotype control serum (Dako). Following 30 min incubation at room temperature, cells are washed with PBS, and incubated in the dark for 30 min with goat anti-mouse Ig-FITC. Fluorescence is measured on a FACScan flow cytometer and analyzed using CellQuest software (Becton Dickinson). For cell cycle analysis, 10^6 cells are fixed in ice-cold ethanol for a minimum of 2 h, washed with PBS, and stained with 5 mg/ml propidium iodide (PI) and […] at 37° C. for 30 min prior to analysis by flow cytometry. Sensitivity to Fas-mediated apoptosis is determined by exposing cells to 500 ng/ml agonistic antibody (CH-11, MBL) or 100 ng/ml Fas ligand (Alexis) for 18-24 h. Apoptosis is measured by staining with Annexin V-FITC (Clontech) and flow cytometry analysis. Fas-specific death is calculated as (% Annexin V positive cells in the CH-11 treated population)−(% Annexin V positive cells in the IgM control population). Programmed cell death in cells transfected with the bicistronic green fluorescent protein vectors (pIRES-EGFP or pIRES-Stat3b) is analyzed after staining with Annexin V-PE (Pharmingen) by two color flow cytometry analysis. […]

peritoneal macrophages = experiment: IL-12-mediated nitric oxide production by macrophages treated in vitro; assay type: cell-based, mice; settings: in vitro treatment of macrophages, 50 mM AG-490
Protocol: Nitric oxide production. Peritoneal macrophages (2×10^5/0.2 ml/well) from mice with various treatments are incubated 48 hours. Nitrite accumulation in macrophage supernatants were determined using Griess reagent.
as §1

8226 cells = experiment: Fas-mediated apoptosis (Annexin V, flow cytometry) in 8226 cells; assay type: cell-based, human; settings: IL-6-independent 8226 cells, AG490 treatment
Protocol: as §2

MDA-MB-468 cells = experiment: Cell growth of MDA-MB-468 breast carcinoma cells; assay type: cell-based, human
Protocol: FIG. 6: Src and JAK Inhibitors Block Growth and STAT3 Activation in Breast Carcinoma Cells. MDA-MD-468 cells are treated with inhibitors of EGF receptor (PD158780), Src (PD180970), or JAKs (AG490), and effects on cell growth (Panel A) and STAT3 DNA-binding activity (Panel B) are determined.
The involvement of these, and other, tyrosine kinases in STAT3 activation is tested using specific inhibitors of JAK family kinases, and the EGF receptor and Src family kinases.

splenocytes = experiment: IL-12-induced IFN-g production by splenocytes ex vivo; assay type: in vivo; settings: mice treated i.p. with AG-490 (0.5 mg) daily 4 days, rIL-12 last two days
Protocol: Mice are treated daily with i.p. injections of […] of AG-490 (0.5 mg) or DMSO vehicle (50%) for a total of 4 days. During the last two days of AG-490 or DMSO treatment, daily i.p. injection of 400 ng of recombinant IL-12 (rIL-12) (Genetics Institute, Cambridge, Mass.) is also given simultaneously with either AG-490 or DMSO. Two days after the last treatment of AG-490, single cell suspensions of splenocytes are prepared from individual mice. The splenocytes are treated with 100 U/ml rIL-2 to induce IFN-g production. IFN-g ELISA (Genzyme, Cambridge, Mass.) is performed as described previously (Tan, et al., 1996, Cancer Res 56:3399).

[4] = system: myeloma cells with activated STAT3; experiment: In vitro apoptosis assay of murine myeloma cells; assay type: cell-based
Protocol: In vitro apoptosis assay. After a 24 hours incubation with LIMEM medium containing […] AG-490, cells are stained with Annexin V-PE and 7-Amino-actinomycin D (PharMingen, San Diego, Calif.). Dual-color fluorescence is measured on a FACScan flow cytometer and analyzed using CellQuest software (Becton Dickinson, Mountain View, Calif.).

SMILES: N#C/C(=C\c1ccc(O)c(O)c1)C(=O)NCc1ccccc1 [AG490]
- cell death of IL-12-activated peritoneal macrophages [1]: no cell death is detected
- Fas-specific apoptosis (U266 cells [2]; AG490 24 hours then CH-11 12 hours, 7 independent experiments): 18-41%
- cells undergoing apoptosis (U266 cells [2]; AG490 24 hours then CH-11 additional 12 hours): up to 90%
- apoptotic tumor cells (TUNEL) (MOPC tumors): high numbers of apoptotic cells
- spontaneous cell death (U266 cells [3]; AG490, 72 hours): extensive spontaneous cell death
- cells accumulating in G1 (U266 cells [3]; AG490 for 48 h): 70%
- IL-12-mediated nitric oxide production (peritoneal macrophages): prevents or suppressed
- sensitivity to Fas-mediated cell death (8226 cells): does not enhance
- cell growth (MDA-MB-468 cells): inhibition of cell growth
- IL-12-induced IFN-g production by splenocytes (splenocytes): slight suppression
- apoptosis of myeloma cells [4]: efficient apoptosis
